The values that follow come from US10626148B2, “Glycopeptides conjugates and uses thereof” (priority 2015, dated 2020).

In data set [1] the test system is Methicillin-resistant S. aureus (ATCC 33591). The experiment in a line: MIC, micro-dilution broth, MRSA. The following applies: Staphylococcus aureus. Format: cell-based. How it is done:
(§1) Test compounds were assayed in a micro-dilution broth format. Stock solutions were made by serially diluting the compounds using autoclaved millipore water or broth media. The antibacterial activity of the compounds was determined against gram positive bactreia like methicillin-resistant S. aureus (MRSA), vancomycin-intermediate-resistant S. aureus (VISA), vancomycin-sensitive E. faecium (VSE), vancomycin-resistant E. faecalis and vancomycin-resistant E. faecium (VRE). Antibacterial activity of dipicolyl-vancomycin conjugate conjugate (4) in combination with meropemem was determined against gram-negative bacteria such as K. pneumoniae ATCC BAA2146, clinical isolates K. pneumoniae R3949, K. pneumoniae R3934, E. coli R3336 and A. baumanii R676. Bacteria, to be tested, were grown for about 10 h in the suitable media, MRSA, VISA and gram negative bacteria were grown in Yeast-dextrose broth (about 1 g of beef extract, about 2 g of yeast extract, about 5 g of peptone and about 5 g of NaCl in about 1000 mL of sterile distilled water (pH-7)). For solid media, about 5% agar was used along with above mentioned composition. VSE and VRE were cultured in Brain Heart Infusion broth (Himedia). The bacterial samples were freeze dried and stored at −80° C. About 5 μL of these stocks were added to about 3 mL of the nutrient broth or Brain Heart Infusion broth and the culture was grown for about 6 h at about 37° C. prior to the experiments. This 6 h grown culture gives about 10^9 cfu/mL and this was determined by spread plating method. The 6 h grown culture was diluted to give effective cell concentration of about 10^5 cfu/mL which was then used for determining MIC. Compounds were serially diluted, in sterile water (2-fold dilution is employed) in a way that the working concentration was about 10 μM for MRSA, and VSE while for VRE, VISA and gram negative bacteria; it was about 100 μM. About 50 μL of these serial dilutions were added to the wells of 96 well plate followed by the addition of about 150 μL of bacterial solution. The plates were then incubated at about 37° C., 150 rpm in the incubator and O.D at 620 nm was recorded at an interval of about 24 h using TECAN (Infinite series, M200 pro) Plate Reader. Each concentration had triplicate values and the whole experiment was done at least twice and the MIC value was determined by taking the average of triplicate O.D. values for each concentration and plotting it against concentration. The data was then subjected to sigmoidal fitting.

The subject of data set [2] is Vancomycin-resistant E. faecium (VanA, ATCC 51559). As to the kind of experiment: MIC, micro-dilution broth, VREm. Format: cell-based. On the procedure:
as §1

For data set [3], the system named is meropenem-resistant NDM-1 bacteria. The experiment in a line: Combination with meropenem against NDM-1 gram negative bacteria. The following applies: in combination with meropenem. Format: cell-based. How it is done:
Test compounds were assayed in a micro-dilution broth format. Stock solutions were made by serially diluting the compounds using autoclaved millipore water or broth media. The antibacterial activity of the compounds was determined against gram positive bactreia like methicillin-resistant S. aureus (MRSA), vancomycin-intermediate-resistant S. aureus (VISA), vancomycin-sensitive E. faecium (VSE), vancomycin-resistant E. faecalis and vancomycin-resistant E. faecium (VRE). Antibacterial activity of dipicolyl-vancomycin conjugate conjugate (4) in combination with meropemem was determined against gram-negative bacteria such as K. pneumoniae ATCC BAA2146, clinical isolates K. pneumoniae R3949, K. pneumoniae R3934, E. coli R3336 and A. baumanii R676. Bacteria, to be tested, were grown for about 10 h in the suitable media, MRSA, VISA and gram negative bacteria were grown in Yeast-dextrose broth (about 1 g of beef extract, about 2 g of yeast extract, about 5 g of peptone and about 5 g of NaCl in about 1000 mL of sterile distilled water (pH-7)). […] This 6 h grown culture gives about 10^9 cfu/mL and this was determined by spread plating method. […] The plates were then incubated at about 37° C., 150 rpm in the incubator and O.D at 620 nm was recorded at an interval of about 24 h using TECAN (Infinite series, M200 pro) Plate Reader. Each concentration had triplicate values and the whole experiment was done at least twice and the MIC value was determined by taking the average of triplicate O.D. values for each concentration and plotting it against concentration. […]
Then, the antibacterial activities of Dipicolyl-vancomycin conjugate (4) is checked in combination with meropenem against New-Delhi β-lactamase producing gram negative bacteria such as K. pneumoniae BAA2146, clinical isolates K. pneumoniae R3949, K. pneumoniae R3934, E. coli R3336 and A. baumanii R676. […] Further we have also evaluated the antibacterial activity of dipicolyl-vancomycin conjugate (4) in presence of zinc sulphate, wherein it forms dipicolyl-vancomycin-zinc complex (5).

In another data set the test system is VREs ATCC 51575. Format: in vivo, E. faecalis. To be noted: CD-1 mice, 12 mg/kg i.p. once daily, three doses. On the procedure:
Female CD-1 mice 6 to 8 weeks of age and weighing 20 to 25 g were used in this study. On day −7, all mice were injected intravenously (i.v.) with 0.2 mL of 0.2% λ-carrageenan to increase their susceptibility to bacterial renal infection. λ-Carrageenan increases mice susceptibility to renal infection following i.v. injection, possibly by forming a lattice structure in renal tissue and forming a support structure for bacterial attachment and growth. Bacterial strains that fail to cause renal infection in normal mice produce significant renal infections in λ-carrageenan-treated mice. On day 0, all mice were injected i.v. with 0.2 mL of the bacterial culture (VREs ATCC 51575, 10^8 CFU/mouse) through the tail vein. Four hours after the bacterial inoculation, mice were treated intraperitoneally (i.p.) with vancomycin, compound 4 and linezolid at 12 mg/kg of body weight or 0.2 mL of saline (0.9% NaCl) control (n=5). All the test compounds or saline were administered once daily for an additional two consecutive days for a total of three doses. All mice were sacrificed on day 3. Both kidneys from each mouse were removed aseptically and homogenized in 10 mL of saline. The dilutions of the homogenate were plated onto sheep blood agar plates, which were incubated overnight at about 37° C. The bacterial titer was expressed as log10 CFU/g of kidney weight.

A short description of data set [4]: In-vivo toxicology, systemic toxicity. The following applies: 100 mg/kg. How it is done:
To evaluate maximum tolerability of the new glycopeptide, systemic toxicity was performed on CD-1 female mice. Each mouse was injected with a 0.2 mL of freshly prepared compound 4 solution in saline. The dose of the compound administered was 100 mg/kg (n=5).

The next data set relates to VRE. The experiment in a line: Cell wall biosynthesis inhibition, UDPMurNAc-pp accumulation. The class given is cell-based. On the procedure: In order to investigate whether the new installed properties of vancomycin derivative on inhibition of cell wall (peptidoglycan) biosynthesis against VRE, the accumulation of UDP-linked peptidoglycan precursor, UDP-N-acetyl-muramyl-pentadepsipeptide (UDPMurNAc-pp) was determined after treating the bacteria (VRE) with test compounds. Analysis of the cytoplasmic peptidoglycan nucleotide precursor pool was examined using VRE cells grown in 25 mL MHB. Cells were grown to an A600 nm (OD600) of 0.6 and incubated with 130 μg/mL of chloramphenicol for 15 min. Then, test compounds vancomycin (5 μM), compound 4 and physical mixture of compound 4 with zinc sulphate (5 μM) were added and incubated for another 60 min. Cells were collected and washed with sterile water to remove the antimicrobial agents and then extracted with boiling water. The cell extract was then centrifuged and the supernatant lyophilized. Then, the lyophilized powder was dissolved in 2 mL of water and pH was adjusted to 2.0 with 20% phosphoric acid. Now, the UDP-linked cell wall precursors in the solution were analyzed by RP-HPLC monitoring the UV absorbance peak at 260 nm wavelength and confirmed by HR-MS mass spectrometry.

In the next data set the test system is MRSA. As to the kind of experiment: Resistance development study, serial passages. Format: cell-based, S. aureus. To be noted: passaged at MIC/2. How it is done:
MIC values of the compound 4 and vancomycin were determined against MRSA as described above. For the next day MIC experiment, the bacterial dilution was made by using the bacteria from sub-MIC concentration of the compounds (at MIC/2). Then, the concentration of this bacteria was adjusted to ˜10^5 CFU/mL based on OD600 and subjected to next MIC assay. After a 24 h incubation period, again bacterial dilution was prepared by using the bacterial suspension from sub-MIC concentration of the compound (at MIC/2) and assayed for another MIC experiment. The process was repeated for 25 passages, and the fold increase in MIC was determined. […] Thus bacteria were unable in acquiring resistance to this compound and this emphasizes the longevity of such compounds in clinics.

As for `CN[C@H](CC(C)C)C(=O)N[C@H]1C(=O)N[C@@H](CC(N)=O)C(=O)N[C@H]2C(=O)N[C@H]3C(=O)N[C@H](C(=O)N[C@H](C(=O)NCCCCCCN(Cc4ccccn4)Cc4ccccn4)c4cc(O)cc(O)c4-c4cc3ccc4O)[C@H](O)c3ccc(c(Cl)c3)Oc3cc2cc(c3O[C@H]2OC(CO)[C@H](O)C(O)C2O[C@H]2CC(C)(N)[C@H](O)C(C)O2)Oc2ccc(cc2Cl)[C@H]1O` (some centres unmarked) [Compound 4, Dipicolyl-vancomycin conjugate], the MIC was 0.6 µM in data set [1] and 1.2 µM in data set [2] (Enterococcus faecium, ATCC51559). The “fold more active than vancomycin” value in data set [2] (VREm (VRE), ratio of MIC values) is on record as “about 700 fold”. The “resensitization of meropenem-resistant NDM-1 bacteria to meropenem (synergistic activity)” value in data set [3] is given as “able to resensitize”. For the same molecule, in the data set on VREs ATCC 51575, the “reduction of bacterial titer from infected kidneys in comparison to vancomycin” value is reported as “reduced bacterial titer from the infected kidneys more effectively”. Also, in the data set with VREs ATCC 51575 (kidneys), the “CFU reduction compared to vehicle treated control (saline)” value is listed as around 5.0 log10 CFU. Further, the “survival at 14 days” value in data set [4] (CD-1 female mice) is listed as “All the mice were found to survive”. The molecule also had a median lethal dose (LD50) at 14 days in data set [4] (female, CD-1, mouse, in vivo) above 100 mg/kg. Besides, in the data set with VRE (60 min), the “cell wall biosynthesis inhibition (accumulation of UDPMurNAc-pp, peak at 260 nm)” value is given as “greater cell wall biosynthesis inhibition compared to vancomycin”. In addition, the “cell wall biosynthesis inhibition (accumulation of UDPMurNAc-pp)” value with VRE (in presence of Zn2+ (zinc sulphate 5 μM)) is “enhanced cell wall biosynthesis inhibition”. Moreover, the “fold increase in MIC after 25 serial passages” value with MRSA is “remained the same”.
